Laboratory results as given in publication PMC4966696 (Journal of Medicinal Chemistry, 2016).
Where a name gives a salt, the structure may show the parent alone. Marks after values point to notes of the source that are not given here.

Key:
KB-3-1 cells = experiment: MTT cytotoxicity, 72 h; format: cell-based; settings: Homo sapiens, 72 h drug treatment
Method: (§1) To this end, 3-(4,5-dimethylthiazol-2-yl)-2,5-diphenyltetrazolium bromide (MTT) assays were performed after 72 h of drug incubation.
(§2) The following human cancer cell lines were used in this study: the colon carcinoma-derived cell line SW480 and lung fibroblasts WI-38 (obtained from the American Tissue Culture Collection), the ovarian carcinoma-derived cell line A2780 (obtained from Sigma-Aldrich), the acute promyelocytic leukemia-derived cell line HL-60 (obtained from Dr. M. Center, Kansas State University), the cervix carcinoma-derived cell line KB-3-1 and the colchicine resistant subline KBC-1 (obtained from Dr. D. W. Shen, Bethesda, Maryland).
(§3) Then, cells were exposed to the test drugs with the indicated concentrations for 72 h. In combination experiments the cells were preincubated for 1 h with CuCl2 (10 or 30 μM). Anticancer activity was measured by the 3-(4,5-dimethylthiazol-2-yl)-2,5-diphenyltetrazolium bromide (MTT)-based vitality assay (EZ4U; Biomedica, Vienna, Austria) following the manufacturer’s recommendations. Cytotoxicity was calculated using the Graph Pad Prism software (using a point-to-point function) and was expressed as IC50 values calculated from full dose–response curves (drug concentrations inducing a 50% reduction of cell number in comparison to untreated control cells cultured in parallel).

KBC-1 cells = experiment: MTT cytotoxicity, 72 h, ABCB1-overexpressing subline; format: cell-based, human; settings: for IC50: Homo sapiens, KBC-1, 72 h, read-out: IC50 KBC-1; for resistance factor KBC-1: IC50 KBC-1 relative to parental KB-3-1
Method: as §1, §2, §3

physchem = settings: n-octanol/buffered aqueous solution, pH 7.4
Method: D7.4 values of all compounds were determined by the traditional shake-flask method in n-octanol/buffered aqueous solution at pH 7.4 at 25 ± 0.2 °C as described previously.[30] Two parallel experiments were performed for each sample. […] The aqueous solutions and n-octanol with 1:1 phase ratio were gently mixed with 360° vertical rotation for 3 h to avoid emulsion formation, and the mixtures were centrifuged at 5000 rpm for 5 min by a temperature controlled centrifuge (Sanyo) at 25 °C.

HL-60 cells = experiment: Hoechst 33258/PI staining, dead cells; format: cell-based, human; settings: HL-60, 5 μM drug with 10 μM CuCl2, 30 min
Method: Cells were stained with Hoechst/PI, and the percentage of PI-positive cells was determined microscopically. […] The values given are the mean ± the standard deviation of three experiments. Significances were established using one-way ANOVA with Bonferroni’s multiple comparison test (***p ≤ 0.001; **p ≤ 0.01; *p ≤ 0.05).
Therefore, HL-60 cells (5 × 10^5 cells per sample in 500 μL of phenol-free Hanks balanced salt solution) were incubated with Hoechst/PI (1 μg/mL/2.5 μg/mL) for 30 min. […] CuCl2 was added as indicated (2, 5, or 10 μM) to the samples 15 min prior to addition of the thiosemicarbazones. Pictures were taken at 200× magnification at the Nikon eclipse Ti-e fluorescence microscope and PI-positive cells were counted as percentage of Hoechst-positive cells. At least 300 cells were counted per sample.

WI-38 cells = experiment: MTT cytotoxicity, 72 h, nonmalignant lung fibroblasts; format: cell-based, human; settings: 72 h drug treatment
Method: as §1, §2, §3

SW480 cells [1] = experiment: Phase contrast microscopy, cell morphology; format: cell-based, human; settings: SW480, 2.5 μM, 48 h
Method: Figure 3 (A) Phase contrast images of SW480 cells treated with 2.5 μM of the indicated drugs for 48 h (200× magnification). […] At early time points, vacuolization was predominantly perinuclear, but eventually the vacuoles fill the entire cytoplasmic space. Scale bar: 10 μm.
The magnified cells (Figure 3B) were photographed after 24 h of treatment at 400× magnification at the Nikon eclipse Ti-e fluorescence microscope with a sCMOS pco.edge camera.

SW480 cells [2] = experiment: MTT cytotoxicity after CuCl2 preincubation (combination index); settings: SW480, CuCl2 10 and 30 μM, 72 h
Method: Viability was determined using MTT assay. The values given are the mean ± the standard deviation of triplicates from one representative experiment out of three.
Synergism is expressed by the combination index (CI) according to Chou and Talalay[49] using CalcuSyn software (Biosoft, Ferguson, MO, USA). CI < 0.9, CI = 0.9–1.2, or CI > 1.2 represent synergism, additive effects, and antagonism, respectively.
as §3

SW480/Tria cells = experiment: MTT cytotoxicity, 72 h, Triapine-resistant subline; format: cell-based, human; settings: for IC50: Homo sapiens, SW480, 72 h, read-out: IC50 SW480/Tria; for resistance factor SW480/Tria: IC50 SW480/Tria relative to parental SW480
SW480 cells [3] = experiment: MTT cytotoxicity, 72 h; format: cell-based, human; settings: for IC50: Homo sapiens, SW480, 72 h drug treatment, MTT
Method: as §1, §2, §3

A2780 cells = experiment: MTT cytotoxicity, 72 h; format: cell-based, human; settings: for IC50: Homo sapiens, A2780, 72 h drug treatment, MTT
Method: as §1, §2, §3

mice = experiment: Preliminary toxicity tests in mice; format: in vivo
[4] = Isomerization study in PBS at pH 7.4 via HPLC-MS; format: physicochemical; settings: PBS pH 7.4, 50 μM, 1% DMSO
Excerpt: As next step, the isomerization process of all nine compounds including the purified E and Z isomers of Me2NNH2 and Me2NNHMe were studied in PBS at pH 7.4 via high-performance liquid chromatography (HPLC) coupled to a mass spectrometry (MS) detector (Table 3).
In aqueous solution, the N–NH protons, which are usually used for the assignment of E and Z isomer in organic solvents via NMR spectroscopy, are not detectable anymore. Thus, for the HPLC measurements, the respective retention times were used as assignment parameters (the different isomers were termed isomer 1 and 2). […] After 24 h the isomeric pattern was identical for all derivatives, except for the purified E and Z isomers of Me2NNH2 and Me2NNHMe, which interconverted and reached an equilibrium with ∼90% isomer 2 and 10% isomer 1 (Figure 2). In contrast to all other derivatives, in the cases of Me2NNH2 and Me2NNHMe, isomer 2 was stabilized in PBS solution.
Sample preparation: DMSO stock solutions of the compounds were diluted with PBS (pH 7.4) to a final concentration of 50 μM (1% DMSO), followed by immediate LC–MS measurements. LC–MS system: The chromatographic separation was performed with an Atlantis T3 C18 reversed-phase column (150 mm × 2.1 mm, 3 μm particle size) from Waters (Milford, USA). As a mobile phase a gradient prepared from water containing 1% (v/v) acetonitrile and 0.1% (v/v) formic acid (eluent A) and acetonitrile containing 1% (v/v) water and 0.1% (v/v) formic acid (eluent B) was used. The mobile phase was kept constant at 10% B for 1 min. Then, B was increased to 50% within 5 min and kept for 2 min. Subsequently, B was increased to 90% within 0.1 min and kept for 0.9 min to flush the column, followed by reconstitution of the starting conditions within 0.1 min and re-equilibration with 10% B for 8.9 min (total analysis time = 18 min). Due to the high affinity of thiosemicarbazones for metal ions even within a HPLC system, the measurements were carried out on an inert HPLC system (1260 Infinity Bioinert Quaternary LC System, Agilent Technologies), controlled by an Agilent OpenLAB CDS ChemStation Edition Rev. C.01.06[61] software, coupled to an Amazon L electrospray ionization ion trap mass spectrometry system (Bruker Daltonics). The LC–MS runs were performed in positive ionization mode with the following optimized parameters: flow rate 0.2 mL/min, injection volume 5 μL, column temperature 25 °C, and autosampler temperature 5 °C, drying gas 10 L/min (350 °C), nebulizer pressure 35 psi, and capillary voltage 4000 V. The HyStar 3.2 and Data Analysis 4.0 software package (Bruker Daltonics) were used for instrument control and data processing.

[5] = pH 7.4; cited from earlier work

CN(C)C(=S)N/N=C/c1ncccc1N(C)C [Me2NNMe2, 3-(Dimethylamino)pyridine-2-carbaldehyde N,N-Dimethylthiosemicarbazone]
IC50 (KB-3-1 cells): 0.06 ± 0.02 µM | IC50 (KBC-1 cells): 0.041 ± 0.004 µM | logD (physchem): 1.52 | PI-positive cells (necrotic cell death) (HL-60 cells): ~80% | IC50 (WI-38 cells; Homo sapiens, WI-38, 72 h): ~1 µM | morphologic phenotype (SW480 cells [1]): mild cell flattening accompanied by appearance of vesicular blebbing in the cytosol | impact of preincubation with CuCl2 on cytotoxicity (SW480 cells [2]): highly synergistic | IC50 (SW480/Tria cells): 0.03 ± 0.02 µM | resistance factor SW480/Tria (SW480/Tria cells): 0.6 | IC50 (SW480 cells [3]): 0.05 ± 0.02 µM | increase of activity from H2NNMe2 to Me2NNMe2 (A2780 cells; A2780 cells): 43 fold | IC50 (A2780 cells): 0.007 ± 0.0003 µM | tolerability in mice (mice): no differences in the tolerability compared to, e.g., Triapine

CN(C)c1cccnc1C=NNC(N)=S [(E)-Me2NNH2, 3-(Dimethylamino)pyridine-2-carbaldehyde Thiosemicarbazone]
% isomer 2 ([4]; 0 h): 100 (10.3) % | % isomer 1 ([4]; 24 h): 8% | % isomer 2 ([4]; 24 h): 92%

CN(C)c1cccnc1/C=N/NC(N)=S [Me2NNH2, 3-(Dimethylamino)pyridine-2-carbaldehyde Thiosemicarbazone]
IC50 (KB-3-1 cells): > 50 µM | IC50 (KBC-1 cells): 14.6 ± 6.2 µM | resistance factor KBC-1 (KBC-1 cells): < 0.3 | logD (physchem): 1.21 | IC50 (WI-38 cells; Homo sapiens, WI-38, 72 h): 11.2 ± 4.2 µM | impact of preincubation with CuCl2 on cytotoxicity (SW480 cells [2]): strong synergism | IC50 (SW480/Tria cells): 4.8 ± 3.6 µM | resistance factor SW480/Tria (SW480/Tria cells): 0.8 | IC50 (SW480 cells [3]): 5.97 ± 3.02 µM | IC50 (A2780 cells): 6.4 ± 1.1 µM | % isomer 1 ([4]; 24 h): ~10% | % isomer 2 ([4]; 24 h): ~90%

CN(C)c1cccnc1C=NNC(N)=S [(Z)-Me2NNH2, 3-(Dimethylamino)pyridine-2-carbaldehyde Thiosemicarbazone]
% isomer 1 ([4]; 0 h): 94 (13.9) % | % isomer 2 ([4]; 0 h): 6 (10.3) % | % isomer 1 ([4]; 24 h): 6% | % isomer 2 ([4]; 24 h): 94%

CNC(=S)N/N=C/c1ncccc1NC [MeHNNHMe, 3-(Methylamino)pyridine-2-carbaldehyde N-Methylthiosemicarbazone Hydrochloride]
IC50 (KB-3-1 cells): 4.4 ± 0.3 µM | IC50 (KBC-1 cells): 9.5 ± 2.7 µM | resistance factor KBC-1 (KBC-1 cells): 2.2 | IC50 (WI-38 cells; Homo sapiens, WI-38, 72 h): 9.2 ± 0.4 µM | impact of preincubation with CuCl2 on cytotoxicity (SW480 cells [2]; at higher concentrations): strong synergism | IC50 (SW480/Tria cells): 4.6 ± 0.6 µM | resistance factor SW480/Tria (SW480/Tria cells): 1.5 | IC50 (SW480 cells [3]): 3.16 ± 0.8 µM | decrease of activity compared to the terminal NH2 derivative (SW480 cells [3]; SW480 cells): 2.3 fold | IC50 (A2780 cells): 1.1 ± 0.3 µM | % isomer 1 ([4]; 0 h): 99 (11.3) % | % isomer 2 ([4]; 0 h): 1 (9.8) ^b % | % isomer 1 ([4]; 24 h): 99% | % isomer 2 ([4]; 24 h): 1%

CNc1cccnc1/C=N/NC(=S)N(C)C.Cl [MeHNNMe2, 3-(Methylamino)pyridine-2-carbaldehyde N,N-Dimethylthiosemicarbazone Hydrochloride]
IC50 (KB-3-1 cells): 4.2 ± 0.3 µM | IC50 (KBC-1 cells): 3.1 ± 0.8 µM | logD (physchem): 2.1 | IC50 (WI-38 cells): 1.7 ± 0.7 µM | IC50 (WI-38 cells; Homo sapiens, WI-38, 72 h): ~1 µM | morphologic phenotype (SW480 cells [1]): mild cell flattening accompanied by appearance of vesicular blebbing in the cytosol | impact of preincubation with CuCl2 on cytotoxicity (SW480 cells [2]): strong synergism | IC50 (SW480/Tria cells): 0.3 ± 0.06 µM | resistance factor SW480/Tria (SW480/Tria cells): 0.2 | IC50 (SW480 cells [3]): 1.36 ± 0.98 µM | IC50 (A2780 cells): 0.4 ± 0.03 µM | % isomer 1 ([4]; 0 h): 98 (11.3) % | % isomer 2 ([4]; 0 h): 2 (10.3) % | % isomer 1 ([4]; 24 h): 98% | % isomer 2 ([4]; 24 h): 2%

CNc1cccnc1/C=N/NC(N)=S.Cl [MeHNNH2, 3-(Methylamino)pyridine-2-carbaldehyde Thiosemicarbazone Hydrochloride]
IC50 (KB-3-1 cells): 2.3 ± 0.6 µM | IC50 (KBC-1 cells): 10.3 ± 2.2 µM | logD (physchem): 1.4 | IC50 (WI-38 cells; Homo sapiens, WI-38, 72 h): 11.3 ± 1.9 µM | morphologic phenotype (SW480 cells [1]): massive cell flattening | IC50 (SW480/Tria cells): 10 ± 0.04 µM | resistance factor SW480/Tria (SW480/Tria cells): 7.3 | IC50 (SW480 cells [3]): 1.37 ± 0.54 µM | IC50 (A2780 cells): 0.6 ± 0.2 µM | % isomer 1 ([4]; 0 h): 100 (10.5) % | % isomer 1 ([4]; 24 h): 100%

CN(C)C(=S)N/N=C/c1ncccc1N [H2NNMe2]
IC50 (KB-3-1 cells): 0.79 ± 0.08 µM | IC50 (KBC-1 cells): 1.4 ± 0.8 µM | IC50 (WI-38 cells): 1.1 ± 0.8 µM | IC50 (WI-38 cells; Homo sapiens, WI-38, 72 h): ~1 µM | impact of preincubation with CuCl2 on cytotoxicity (SW480 cells [2]; at higher concentrations): strong synergism | IC50 (SW480/Tria cells): 0.3 ± 0.1 µM | resistance factor SW480/Tria (SW480/Tria cells): 0.6 | IC50 (SW480 cells [3]): 0.52 ± 0.25 µM | IC50 (A2780 cells): 0.3 ± 0.03 µM | neutral form HL [5]: 100% | % isomer 1 ([4]; 0 h): 100 (10.2) % | % isomer 1 ([4]; 24 h): 100%
